From PubChem BioAssay (NCI)
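Protocol summary: plate cells (96-well), add compound at 5 concentrations, incubate 48 h, interpolate endpoints linearly. TGI marks complete inhibition of growth.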

Experiments:
Assay in all cases: NCI anticancer screen, dose series, 48 h
[1] = test system: HOP-92 NSCLC
[2] = test system: UACC-62 melanoma
[3] = test system: SN12C renal
[4] = test system: SNB-19 CNS
[5] = test system: SNB-75 CNS
[6] = test system: OVCAR-5 ovarian
[7] = test system: RXF 393 renal
[8] = test system: IGROV1 ovarian
[9] = test system: SK-OV-3 ovarian
[10] = test system: A498 renal
[11] = test system: BT-549 breast
[12] = test system: UO-31 renal
[13] = test system: OVCAR-8 ovarian
[14] = test system: HS 578T breast
[15] = test system: KM12 colon
[16] = test system: K-562 leukemia
[17] = test system: MDA-MB-435
[18] = test system: SK-MEL-2 melanoma
[19] = test system: SF-295 CNS
[20] = test system: SF-539 CNS
[21] = test system: ACHN renal
[22] = test system: OVCAR-4 ovarian
[23] = test system: TK-10 renal
[24] = test system: MDA-N
[25] = test system: MDA-MB-231 breast
[26] = test system: EKVX NSCLC
[27] = test system: MOLT-4 leukemia
[28] = test system: HOP-62 NSCLC
[29] = test system: MCF7 breast
[30] = test system: T-47D breast
[31] = test system: U251 CNS
[32] = test system: M14 melanoma
[33] = test system: NCI-H460 lung
[34] = test system: NCI/ADR-RES ovarian
[35] = test system: NCI-H226 lung
[36] = test system: HCT-116 colon
[37] = test system: NCI-H23 lung
[38] = test system: RPMI-8226 leukemia
[39] = test system: 786-0 renal
[40] = test system: COLO 205 colon
[41] = test system: OVCAR-3 ovarian
[42] = test system: UACC-257 melanoma
[43] = test system: HL-60(TB) leukemia
[44] = test system: SF-268 CNS
[45] = test system: HCC-2998 colon
[46] = test system: SK-MEL-5 melanoma
[47] = test system: A549 NSCLC
[48] = test system: SW-620 colon
[49] = test system: HCT-15 colon
[50] = test system: HT29 colon
[51] = test system: SK-MEL-28 melanoma
[52] = test system: DU-145 prostate
[53] = test system: CCRF-CEM leukemia
[54] = test system: LOX IMVI melanoma
[55] = test system: PC-3 prostate
[56] = test system: CAKI-1 renal
[57] = test system: SR leukemia
[58] = test system: NCI-H522 lung
[59] = test system: MALME-3M melanoma

## COc1ccc(/C=C2/SC(=Nc3ccccc3)N(NC(=O)Cc3ccccc3)C2=O)cc1
[1]
  TGI: > 100 µM
[2]
  TGI: > 100 µM
[3]
  TGI: > 100 µM
[4]
  TGI: > 100 µM
[5]
  TGI: > 100 µM
[6]
  TGI: > 100 µM
[7]
  TGI: > 100 µM
[8]
  TGI: > 100 µM
[9]
  TGI: > 100 µM
[10]
  TGI: > 100 µM
[11]
  TGI: > 100 µM
[12]
  TGI: > 100 µM
[13]
  TGI: > 100 µM
[14]
  TGI: > 100 µM
[15]
  TGI: > 100 µM
[16]
  TGI: > 100 µM
[17]
  TGI: > 100 µM
[18]
  TGI: > 100 µM
[19]
  TGI: > 100 µM
[20]
  TGI: > 100 µM
[21]
  TGI: > 100 µM
[22]
  TGI: > 100 µM
[23]
  TGI: > 100 µM
[24]
  TGI: > 100 µM
[25]
  TGI: > 100 µM
[26]
  TGI: > 100 µM
[27]
  TGI: > 100 µM
[28]
  TGI: > 100 µM
[29]
  TGI: > 100 µM
[30]
  TGI: > 100 µM
[31]
  TGI: > 100 µM
[32]
  TGI: > 100 µM
[33]
  TGI: > 100 µM
[34]
  TGI: > 100 µM
[35]
  TGI: > 100 µM
[36]
  TGI: > 100 µM
[37]
  TGI: > 100 µM
[38]
  TGI: > 100 µM
[39]
  TGI: > 100 µM
[40]
  TGI: > 100 µM
[41]
  TGI: > 100 µM
[42]
  TGI: > 100 µM
[43]
  TGI: > 100 µM
[44]
  TGI: > 100 µM
[45]
  TGI: > 100 µM
[46]
  TGI: > 100 µM
[47]
  TGI: > 100 µM
[48]
  TGI: > 100 µM
[49]
  TGI: > 100 µM
[50]
  TGI: > 100 µM
[51]
  TGI: > 100 µM
[52]
  TGI: > 100 µM
[53]
  TGI: > 100 µM

## CCC1=CC(OCc2ccccc2)C(CCN(Cc2ccccc2)C(=O)OCc2ccccc2)C1 (configuration not stated)
[1]
  TGI: 27 µM
[2]
  TGI: 24.8 µM
[4]
  TGI: 30.9 µM
[5]
  TGI: 22.6 µM
[6]
  TGI: 36.9 µM
[7]
  TGI: 17.7 µM
[8]
  TGI: 29.8 µM
[9]
  TGI: 80.6 µM
[54]
  TGI: 32.7 µM
[10]
  TGI: 48.4 µM
[55]
  TGI: 42.9 µM
[12]
  TGI: 28.3 µM
[13]
  TGI: 32.8 µM
[14]
  TGI: 32.6 µM
[15]
  TGI: 29.7 µM
[16]
  TGI: > 100 µM
[56]
  TGI: 28.3 µM
[17]
  TGI: 32.7 µM
[18]
  TGI: 42.1 µM
[57]
  TGI: 56.4 µM
[19]
  TGI: 35.3 µM
[20]
  TGI: 49.1 µM
[21]
  TGI: 30.9 µM
[22]
  TGI: 27.4 µM
[58]
  TGI: 25.9 µM
[23]
  TGI: 30.9 µM
[24]
  TGI: 54.1 µM
[25]
  TGI: 62.6 µM
[26]
  TGI: 32.8 µM
[27]
  TGI: 46.5 µM
[28]
  TGI: 37.1 µM
[29]
  TGI: 35 µM
[30]
  TGI: 22.8 µM
[59]
  TGI: 30.1 µM
[31]
  TGI: 62 µM
[32]
  TGI: 27.8 µM
[33]
  TGI: 39.7 µM
[34]
  TGI: 35.3 µM
[35]
  TGI: 36.5 µM
[37]
  TGI: 33.4 µM
[38]
  TGI: 86.2 µM
[39]
  TGI: 40.1 µM
[40]
  TGI: 45.6 µM
[41]
  TGI: 28.4 µM
[42]
  TGI: 30.3 µM
[44]
  TGI: 32.5 µM
[45]
  TGI: 35.8 µM
[46]
  TGI: 37.8 µM
[47]
  TGI: 32.1 µM
[48]
  TGI: 37 µM
[49]
  TGI: 29.1 µM
[50]
  TGI: 37.6 µM
[51]
  TGI: 37.8 µM
[52]
  TGI: 30.2 µM
